# Data taken from patent publication US20240002416A1 (Rheinische-Friedrich-Wilhelms-Universität Bonn, priority 2020, published 2024).
# Columns and labels:
# human MRGPRX4-83L [1] = biological target: T1, human MRGPRX4-83L (Homo sapiens, UniProt Q96LA9); test: β-arrestin assay (CHO β-arrestin ARMS1-ProLink 2 human MRGPRX4 83L); format: cell-based
# T1 construct: host or cells: CHO β-arrestin cells
# Summary of the method: (§1)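 CHO cells, recombinant hMRGPRX4 → β-arrestin recruitment via β-gal complementation. Ca mobilization → recombinant astrocytes (83L) or native LN229 cells (83S).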
# MRGPRX4-83S [2] = biological target: T2, MRGPRX4-83S (Homo sapiens, UniProt Q96LA9, L83S); test: β-arrestin assay (CHO β-arrestin human MRGPRX4-83S); format: cell-based; set-up: host or cells: CHO β-arrestin cells
# T2 sequence (Q96LA9 whole entry L83S): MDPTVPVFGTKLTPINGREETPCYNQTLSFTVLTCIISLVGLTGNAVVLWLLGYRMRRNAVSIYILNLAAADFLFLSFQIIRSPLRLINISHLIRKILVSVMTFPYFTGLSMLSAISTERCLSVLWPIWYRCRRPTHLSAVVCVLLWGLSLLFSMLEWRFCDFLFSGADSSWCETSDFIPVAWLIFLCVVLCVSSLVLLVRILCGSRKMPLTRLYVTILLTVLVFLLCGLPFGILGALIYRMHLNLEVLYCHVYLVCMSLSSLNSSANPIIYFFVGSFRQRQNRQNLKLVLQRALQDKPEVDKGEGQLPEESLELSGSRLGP
# Summary of the method: as §1
# human MRGPRX4-83L [3] = biological target: T1, human MRGPRX4-83L; test: Calcium assay (human MRGPRX4 83L), recombinant astrocytes; format: cell-based
# Summary of the method: as §1
# MRGPRX4-83S [4] = biological target: T2, MRGPRX4-83S; test: Calcium assay (human glioblastoma LN229 cells expressing the MRGPRX4-83S); format: cell-based; set-up: LN229 glioblastoma cells natively expressing the MRGPRX4-83S; endogenous in cells; host or cells: LN229 human glioblastoma cells; conditions: for Emax: LN-229
# Summary of the method: as §1
# [5] = Table 1, efficacy based on maximal effect of 100 nM B-16 (set as 100%), read-out: Emax
# [6] = Table 1, β-arrestin recruitment, CHO cells, MRGPRX4-83L, means of 3-4 experiments, read-out: EC50 ± SEM
# [7] = Table 2, efficacy based on 100 nM B-16 (set as 100%), read-out: Emax
# [8] = Table 2, β-arrestin recruitment, CHO cells, MRGPRX4-83S, read-out: EC50 ± SEM
# [9] = Table 1, calcium mobilization, MRGPRX4-83L, read-out: EC50 ± SEM
# [10] = Table 1, efficacy based on maximal effect of 1 μM B-16 (set as 100%), read-out: Emax
# [11] = Table 2, efficacy based on 30 μM H-1 (set as 100%), read-out: Emax
# [12] = Table 2, calcium mobilization, LN229 cells, MRGPRX4-83S, read-out: EC50 ± SEM
# [13] = Table 4, efficacy based on maximal effect of 100 nM B-16 (set as 100%), read-out: Emax
# [14] = Table 4, β-arrestin recruitment, CHO cells, MRGPRX4-83L, read-out: EC50 ± SEM
# [15] = Table 3, efficacy based on 100 nM B-16 (set as 100%), read-out: Emax
# [16] = Table 3, β-arrestin recruitment, CHO cells, MRGPRX4-83S, read-out: EC50 ± SEM
# [17] = Table 4, calcium mobilization, MRGPRX4-83L, read-out: EC50 ± SEM
# [18] = Table 4, efficacy based on maximal effect of 1 μM B-16 (set as 100%), read-out: Emax
# [19] = Table 3, efficacy based on 30 μM H-1 (set as 100%), read-out: Emax
# [20] = Table 3, calcium mobilization, LN229 cells, MRGPRX4-83S, read-out: EC50 ± SEM
# T1 sequence (Q96LA9 whole entry): as the sequence (Q96LA9 whole entry L83S) above, with S83L counted along it
melting point [°C],Emax (human MRGPRX4-83L [1]; [5]) [%],EC50 (human MRGPRX4-83L [1]; [6]) [nM],Emax (MRGPRX4-83S [2]; [7]) [%],EC50 (MRGPRX4-83S [2]; [8]) [nM],EC50 (human MRGPRX4-83L [3]; [9]) [nM],Emax (human MRGPRX4-83L [3]; [10]) [%],Emax (MRGPRX4-83S [4]; [11]) [%],EC50 (MRGPRX4-83S [4]; [12]) [nM],Emax (human MRGPRX4-83L [1]; [13]) [%],EC50 (human MRGPRX4-83L [1]; [14]) [nM],Emax (MRGPRX4-83S [2]; [15]) [%],EC50 (MRGPRX4-83S [2]; [16]) [nM],EC50 (human MRGPRX4-83L [3]; [17]) [nM],Emax (human MRGPRX4-83L [3]; [18]) [%],Emax (MRGPRX4-83S [4]; [19]) [%],EC50 (MRGPRX4-83S [4]; [20]) [nM],SMILES,other results
223 to 226,114,11900 ± 1800,100,20.5 ± 2.4,267 ± 66,99,150,38.2 ± 10.9,–,–,–,–,–,–,–,–,"C#CCn1c(=O)c2[nH]c(CCc3cccc(C(F)(F)F)c3)nc2n(CCCCP(=O)(O)O)c1=O [B-6, (4-(2,6-Dioxo-1-(prop-2-yn-1-yl)-8-(3-(trifluoromethyl)phenethyl)-1,2,6,7-tetrahydro-3H-purin-3-yl)butyl)phosphonic acid]",–
169 to 172,103,3120 ± 1200,101,8.94 ± 1.38,397 ± 32,108,132,10.3 ± 1.3,–,–,–,–,–,–,–,–,"C#CCn1c(=O)c2[nH]c(CCc3ccccc3OC)nc2n(CCCCP(=O)(O)O)c1=O [B-7, (4-(8-(2-Methoxyphenethyl)-2,6-dioxo-1-(prop-2-yn-1-yl)-1,2,6,7-tetrahydro-3H-purin-3-yl)butyl)phosphonic acid]",–
255 to 257,100,14500 ± 2400,87,71.4 ± 19.3,425 ± 187,113,82,30.6 ± 3.1,–,–,–,–,–,–,–,–,"C#CCn1c(=O)c2[nH]c(CCc3ccc(OC)cc3OC)nc2n(CCCCP(=O)(O)O)c1=O [B-10, (4-(8-(2,4-Dimethoxyphenethyl)-2,6-dioxo-1-(prop-2-yn-1-yl)-1,2,6,7-tetrahydro-3H-purin-3-yl)butyl)phosphonic acid]",–
256 to 260,–,> 10000,81,735 ± 131,9450 ± 3230,99,74,500 ± 113,–,–,–,–,–,–,–,–,"CCn1c(=O)c2[nH]c(CCc3ccc(F)cc3)nc2n(CCCCP(=O)(O)O)c1=O [B-14, (4-(1-Ethyl-8-(4-fluorophenethyl)-2,6-dioxo-1,2,6,7-tetrahydro-3H-purin-3-yl)butyl)phosphonic acid]","value in brackets beside IC50 >10 (human MRGPRX4-83L [1]; Table 1, bracketed value ± spread in IC50 column, not defined, inhibition of 2.6 μM B-16): 3 ± 15; IC50 (human MRGPRX4-83L [1]; Table 1, inhibition of the effect of 2.6 μM B-16): > 10000 nM"
217 to 219,–,–,–,–,–,–,–,–,118,113 ± 39,78,1.48 ± 0.18,39.7 ± 9.6,62,92,0.284 ± 0.074,"C#CCn1c(=O)c2c(nc(CCc3ccccc3F)n2C)n(CCCCP(=O)(O)O)c1=O [B-28, (4-(8-(2-Fluorophenethyl)-7-methyl-2,6-dioxo-1-(prop-2-yn-1-yl)-1,2,6,7-tetrahydro-3H-purin-3-yl)butyl)phosphonic acid]",–
207 to 209,–,–,–,–,–,–,–,–,95,9.02 ± 1.49,110,0.146 ± 0.033,2 ± 0.94,97,104,0.363 ± 0.109,"C#CCn1c(=O)c2c(nc(CCc3c(Cl)cccc3Cl)n2CC)n(CCCCP(=O)(O)O)c1=O [B-34, (4-(8-(2,6-Dichlorophenethyl)-7-ethyl-2,6-dioxo-1-(prop-2-yn-1-yl)-1,2,6,7-tetrahydro-3H-purin-3-yl)butyl)phosphonic acid]",–
143 to 145,–,–,–,–,–,–,–,–,95,1250 ± 410,84,4.28 ± 0.83,25.2 ± 3,109,112,0.787 ± 0.164,"C#CCn1c(=O)c2c(nc(CCc3ccccc3Br)n2CC2CCCCC2)n(CCCCP(=O)(O)O)c1=O [B-36, (4-(8-(2-Bromophenethyl)-7-(cyclohexylmethyl)-2,6-dioxo-1-(prop-2-yn-1-yl)-1,2,6,7-tetrahydro-3H-purin-3-yl)butyl)phosphonic acid]",–
129 to 131,–,–,–,–,–,–,–,–,92,1.44 ± 0.32,79,13.4 ± 0.8,267 ± 153,9,6,5.81 ± 0.58,"C#CCn1c(=O)c2c(nc(CCc3ccc(Br)cc3)n2CC2CCCC2)n(CCCCP(=O)(O)O)c1=O [B-38, (4-(8-(4-Bromophenethyl)-7-(cyclopentylmethyl)-2,6-dioxo-1-(prop-2-yn-1-yl)-1,2,6,7-tetrahydro-3H-purin-3-yl)butyl)phosphonic acid]",IC50 (human MRGPRX4-83L [3]): 949 ± 308 nM; IC50 (MRGPRX4-83S [4]): 5.23 ± 2.2 nM
167 to 169,–,–,–,–,–,–,–,–,99,85.1 ± 27.9,93,0.298 ± 0.05,12.7,101,97,0.32 ± 0.087,"C#CCn1c(=O)c2c(nc(CCc3ccccc3Br)n2CC2CCC2)n(CCCCP(=O)(O)O)c1=O [B-45, (4-(8-(2-Bromophenethyl)-7-(cyclobutylmethyl)-2,6-dioxo-1-(prop-2-yn-1-yl)-1,2,6,7-tetrahydro-3H-purin-3-yl)butyl)phosphonic acid]",–
109 to 111,–,–,–,–,–,–,–,–,116,13.6 ± 6.1,91,0.075 ± 0.0184,0.684 ± 0.073,108,109,0.79 ± 0.262,"C#CCn1c(=O)c2c(nc(CCc3ccccc3Br)n2C(C)C)n(CCCCP(=O)(O)O)c1=O [B-46, (4-(8-(2-Bromophenethyl)-7-isopropyl-2,6-dioxo-1-(prop-2-yn-1-yl)-1,2,6,7-tetrahydro-3H-purin-3-yl)butyl)phosphonic acid]",–
159 to 161,–,–,–,–,–,–,–,–,93,566 ± 106,99,0.932 ± 0.177,79.8 ± 36.7,102,107,1.48 ± 0.4,"C#CCn1c(=O)c2c(nc(CCc3ccccc3Br)n2CCN)n(CCCCP(=O)(O)O)c1=O [B-51, (4-(7-(2-Aminoethyl)-8-(2-bromophenethyl)-2,6-dioxo-1-(prop-2-yn-1-yl)-1,2,6,7-tetrahydro-3H-purin-3-yl)butyl)phosphonic acid]",–

SMILES,melting point [°C],Emax (human MRGPRX4-83L [1]; [5]) [%],EC50 (human MRGPRX4-83L [1]; [6]) [nM],Emax (MRGPRX4-83S [2]; [7]) [%],EC50 (MRGPRX4-83S [2]; [8]) [nM],EC50 (human MRGPRX4-83L [3]; [9]) [nM],Emax (human MRGPRX4-83L [3]; [10]) [%],Emax (MRGPRX4-83S [4]; [11]) [%],EC50 (MRGPRX4-83S [4]; [12]) [nM],Emax (human MRGPRX4-83L [1]; [13]) [%],EC50 (human MRGPRX4-83L [1]; [14]) [nM],Emax (MRGPRX4-83S [2]; [15]) [%],EC50 (MRGPRX4-83S [2]; [16]) [nM],EC50 (human MRGPRX4-83L [3]; [17]) [nM],Emax (human MRGPRX4-83L [3]; [18]) [%],Emax (MRGPRX4-83S [4]; [19]) [%],EC50 (MRGPRX4-83S [4]; [20]) [nM],other results
"C#CCn1c(=O)c2c(nc(CCc3ccccc3Br)n2CCCl)n(CCCCP(=O)(O)O)c1=O [B-50, (4-(8-(2-Bromophenethyl)-7-(2-chloroethyl)-2,6-dioxo-1-(prop-2-yn-1-yl)-1,2,6,7-tetrahydro-3H-purin-3-yl)butyl)phosphonic acid]",197 to 199,–,–,–,–,–,–,–,–,–,–,–,–,–,–,–,–,EC50 (human MRGPRX4-83L [1]): 24.3 ± 3.2 nM; Emax (human MRGPRX4-83L [1]): 91%; EC50 (MRGPRX4-83S [2]): 0.301 ± 0.021 nM; Emax (MRGPRX4-83S [2]): 84%; EC50 (human MRGPRX4-83L [3]): 2.28 ± 0.75 nM; Emax (human MRGPRX4-83L [3]): 118%; EC50 (MRGPRX4-83S [4]): 0.095 ± 0.0427 nM; Emax (MRGPRX4-83S [4]): 111%
"C#CCn1c(=O)c2[nH]c(CCc3cccc(OC)c3)nc2n(CCCCP(=O)(O)OCC)c1=O [D-3, Ethyl hydrogen (4-(8-(3-methoxyphenethyl)-2,6-dioxo-1-(prop-2-yn-1-yl)-1,2,6,7-tetrahydro-3H-purin-3-yl)butyl)phosphonate]",118 to 120,112,407 ± 710,110,5.8 ± 1.41,36.3 ± 1.8,114,111,2.65 ± 0.72,–,–,–,–,–,–,–,–,–
